Source: patent US4985558A, “1,4-dihydropyridine derivative” (Nikken Chemicals Co., Ltd., priority 1988, dated 1991)
“And” between values parts separate entries of the source, which are not always exact repeats. Equal values may be shown once. Read-outs that look alike come from different tables or passages of the source.

What was measured:
rat rectum smooth muscle = assay: Inhibitory effects on potassium contracture in rat rectum smooth muscle; format: cell-based; settings: 5 min, K contraction 5.6 to 56.0 mM, read-out: Inhibition ratio; for inhibition at 0.1 µM: 10^-7 M; for inhibition at 0.01 µM: 10^-8 M
Method: Rat rectum (about 1.5 cm) was isolated and suspended in a Magnus tube. A Locke solution was employed as the nutrient solution, and a contraction of the intestinum rectum was caused by changing the potassium (K) concentration of this solution from 5.6 mmol (mM) to 56.0 mM. This contraction was a contraction through a membrane dependent Ca-channel mediated contraction based on depolarization by a K concentration change. The contraction was recorded by an FD-transducer and polygraph. The compounds of the present invention were permitted to act 5 minutes before changing the K concentration, and simultaneously with changing the K concentration. […] A judgement was made 5 minutes after changing the K concentration, and the difference in contraction before the concentration change was indicated as an inhibition % value. Verapamil and nicardipine were employed as the positive control compound .

[1] = test system: vincristine (VCR)-resistant mouse leukemia (P388/VCR) cells; assay: Antitumor agent potentiating effect in vincristine-resistant tumor bearing mouse (Example 11, i.p. 5 days); format: in vivo
Method: (§1) The potentiating effect of the antitumor agent (T/V) % was determined according to the formula shown below. Verapamil was employed as the positive Control compound. […] In the Tables, Compound 1 is the compound obtained in Example 1, Compound 2 that obtained in Example 2, Compound 3 that obtained in Example 3, Compound 4 that obtained in Example 4, and Compound 5 that obtained in Example 5. [formula]

ICR mice = assay: acute toxicity test; settings: mouse, in vivo;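 further: intraperitoneal dosing with deaths counted over 10 days of observation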
Method: Male 6-week-old ICR mice were divided into groups of 2 to 5 mice per group. […] The drugs to be tested were administered in varying amounts of 250 to 2000 mg/kg to 5 or 7 groups (a geometrical series of .cent.2), at a dose volume of 10 ml/kg. In the Table, the respective compounds have the same meanings as described above.

[2] = test system: spontaneously hypertensive rats (SHR); settings: rat, in vivo, ip
Method: The systolic blood pressure was measured by using spontaneously hypertensive rats (SHR), which are a model of hypertension when examine the hypotensive activities of the compounds of the present invention and the positive Control compound. The rats were warmed for 5 minutes in a warming box at 55° C., and their blood pressure then measured by a tail cuff plethysmograph. The compounds of the present invention were administered singly and intraperitoneally at a dose of 100 mg/kg and the positive Control compound was administered singly and intraperitoneally at a dose of 10 mg/kg. […] Blood pressure measurements were taken before administration and 60 minutes after administration. Nicardipine was employed as the positive Control compound.

[3] = test system: vincristine (VCR)-resistant mouse leukemia (P388/VCR) cells; assay: Antitumor agent potentiating effect in vincristine-resistant tumor bearing mouse (Example 12, i.p.); format: in vivo
Method: as §1
The potentiating effect of the antitumor agent (T/V) % was determined as described above (Example 11). Nicardipine was employed as the positive Control compound, and was administered intraperitoneally for 10 days. […] In the Tables, Compound 6 is the compound obtained in Example 6, Compound 7 that obtained in Example 7, and Compound 8 that obtained in Example 8.

[4] = test system: vincristine (VCR)-resistant mouse leukemia (P388/VCR) cells; assay: Antitumor agent potentiating effect in vincristine-resistant tumor bearing mouse (Example 13, oral compound, 10 days); format: in vivo
[5] = test system: antitumor drug sensitive cells P388/S of mouse P388 leukemia cells; assay: VCR alone in mice bearing drug sensitive P388/S leukemia (Example 13, Table 8(B)); format: in vivo
Method: The compounds of this invention were administered orally after the treatment described above, and VCR was administered as described above. The progress thereof was observed and the survival days for respective animals were determined to obtain the survival ratio (T/C) % relative to the Control. The antitumor agent potentiating effect (T/V) % was determined as described above. In the Table, Compound 8 is the compound obtained in Example 8.

[6] = compound 100 mg/kg i.p. + VCR 30 μg/kg i.p.
[7] = compound alone 100 mg/kg i.p., no VCR
[8] = compound 50 mg/kg/day oral + VCR 100 μg/kg/day i.p.
[9] = compound 100 mg/kg/day oral + VCR 10 μg/kg/day i.p.
[10] = compound 100 mg/kg/day oral + VCR 30 μg/kg/day i.p.
[11] = compound 100 mg/kg/day oral + VCR 100 μg/kg/day i.p.
[12] = compound 200 mg/kg/day oral + VCR 10 μg/kg/day i.p.
[13] = compound 200 mg/kg/day oral + VCR 30 μg/kg/day i.p.
[14] = compound 200 mg/kg/day oral + VCR 100 μg/kg/day i.p.
[15] = compound 300 mg/kg/day oral + VCR 10 μg/kg/day i.p.
[16] = compound 300 mg/kg/day oral + VCR 30 μg/kg/day i.p.
[17] = positive control 50 mg/kg i.p., 10 days + VCR 30 μg/kg
[18] = positive control 75 mg/kg i.p., 10 days + VCR 30 μg/kg
[19] = positive control alone 50 mg/kg i.p., 10 days
[20] = positive control alone 75 mg/kg i.p., 10 days
[21] = VCR 30 μg/kg i.p. alone (reference = 100)
[22] = positive control 30 mg/kg + VCR 30 μg/kg
[23] = positive control 60 mg/kg + VCR 30 μg/kg

SMILES: CC1=C(C(=O)OCc2ccccn2)C(C2=COCCO2)C(C(=O)OCc2ccccn2)=C(C)N1 [Compound 1, bis(2-pyridylmethyl) 4-[2-(5,6-dihydro-p-dioxinyl)]-2,6-dimethyl-1,4-dihydropyridine-3,5-dicarboxylate]
- inhibition at 0.1 µM (rat rectum smooth muscle): 11.2%
- Potentiating effect T/V [1, 6]: 116%
- Survival Days (Mean ± SD) [1, 6]: 14.5 ± 1.6 days
- Survival ratio T/C [1, 6]: 121%
- Survival Days (Mean ± SD) [1, 7]: 12.2 ± 0.8 days
- Survival ratio T/C [1, 7]: 102%
- Mortality (ICR mice): 0/2

SMILES: CC1=C(C(=O)OCCc2ccccn2)C(C2=COCCO2)C(C(=O)OCCc2ccccn2)=C(C)N1 [Compound 4, bis[2-(2-pyridyl)ethyl]4-[2-(5,6-dihydro-p-dioxinyl)]-2,6-dimethyl-1,4-dihydropyridine-3,5-dicarboxylate]
- inhibition at 0.1 µM (rat rectum smooth muscle): 5.2%
- inhibition at 0.01 µM (rat rectum smooth muscle): -6.9%
- Potentiating effect T/V [1, 6]: 121%
- Survival Days (Mean ± SD) [1, 6]: 13.7 ± 1.6 days
- Survival ratio T/C [1, 6]: 126%

SMILES: CCc1ccc(COC(=O)C2=C(C)NC(C)=C(C(=O)OCc3ccc(CC)cn3)C2C2=COCCO2)nc1 [Compound 5, bis[2-(5-ethylpyridyl)methyl]4-[2-(5,6-dihydro-p-dioxinyl)-]2,6-dimethyl-1,4-dihydropyridine-3,5-dicarboxylate]
- Blood pressure change ([2]; 100 mg/kg): -34 mmHg
- Systolic Blood Pressure 60 minutes after administration ([2]; 100 mg/kg): 187 mmHg
- Potentiating effect T/V [1, 6]: 131%
- Survival Days (Mean ± SD) [1, 6]: 14.8 ± 1.2 days
- Survival ratio T/C [1, 6]: 136%
- Mortality (ICR mice): 0/2 and 0/3

SMILES: CC1=C(C(=O)OCc2ccccn2)C(C2=CSCCS2)C(C(=O)OCc2ccccn2)=C(C)N1 [Compound 6, bis(2-pyridylmethyl) 4-[2-(5,6-dihydro-1,4-dithiinyl)]-2,6-dimethyl-1,4-dihydropyridine-3,5-dicarboxylate]
- Blood pressure change ([2]; 100 mg/kg): -30 mmHg
- Systolic Blood Pressure 60 minutes after administration ([2]; 100 mg/kg): 191 mmHg
- Potentiating effect T/V [3, 6]: 125%
- Survival Days (Mean ± SD) [3, 6]: 14.2 ± 1.2 days
- Survival ratio T/C [3, 6]: 138%
- Survival Days (Mean ± SD) [3, 7]: 10.8 ± 0.8 days
- Survival ratio T/C [3, 7]: 105%
- Mortality (ICR mice): 0/2 and 0/3

SMILES: CC1=C(C(=O)OCc2cccnc2)C(C2=CSCCS2)C(C(=O)OCc2cccnc2)=C(C)N1 [Compound 7, bis(3-pyridylmethyl) 4-[2-(5,6-dihydro-1,4-dithiinyl)]-2,6-dimethyl-1,4-dihydropyridine-3,5-dicarboxylate]
- Blood pressure change ([2]; 100 mg/kg): -38 mmHg
- Systolic Blood Pressure 60 minutes after administration ([2]; 100 mg/kg): 189 mmHg
- Potentiating effect T/V [3, 6]: 118%
- Survival Days (Mean ± SD) [3, 6]: 13.5 ± 0.8 days
- Survival ratio T/C [3, 6]: 131%
- Survival Days (Mean ± SD) [3, 7]: 11.0 ± 0.6 days
- Survival ratio T/C [3, 7]: 107%

SMILES: CC1=C(C(=O)OCc2ccncc2)C(C2=C(C)SCCS2)C(C(=O)OCc2ccncc2)=C(C)N1 [Compound 8, bis(4-pyridylmethyl) 4-[2-(3-methyl-5,6-dihydro-1,4-dithiinyl)-]2,6-dimethyl-1,-4-dihydropyridine-3,5-dicarboxylate]
- Blood pressure change ([2]; 100 mg/kg): -11 mmHg
- Systolic Blood Pressure 60 minutes after administration ([2]; 100 mg/kg): 187 mmHg
- Potentiating effect T/V [3, 6]: 138%
- Survival Days (Mean ± SD) [3, 6]: 13.5 ± 0.8 days
- Survival ratio T/C [3, 6]: 138%
- Survival Days (Mean ± SD) [3, 7]: 9.7 ± 1.0 days
- Survival ratio T/C [3, 7]: 99%
- life prolonging effect compared with VCR alone in P388/S ([4]; combination with VCR, P388/VCR, Table 8): has an effect comparable to the prolonging effect when VCR is administered alone to P388/S which is a vincristine-sensitive clone (Table 8), thus completely overcoming the VCR resistance
- Potentiating effect T/V [4, 8]: 120%
- Survival Days (Mean ± SD) [4, 8]: 12.5 ± 1.6 days
- Survival ratio T/C [4, 8]: 132%
- Potentiating effect T/V [4, 9]: 120%
- Survival Days (Mean ± SD) [4, 9]: 11.3 ± 0.8 days
- Survival ratio T/C [4, 9]: 119%
- Potentiating effect T/V [4, 10]: 118%
- Survival Days (Mean ± SD) [4, 10]: 12.2 ± 1.2 days
- Survival ratio T/C [4, 10]: 128%
- Potentiating effect T/V [4, 11]: 130%
- Survival Days (Mean ± SD) [4, 11]: 13.5 ± 1.4 days
- Survival ratio T/C [4, 11]: 142%
- Potentiating effect T/V [4, 12]: 131%
- Survival Days (Mean ± SD) [4, 12]: 12.3 ± 0.5 days
- Survival ratio T/C [4, 12]: 129%
- Potentiating effect T/V [4, 13]: 139%
- Survival Days (Mean ± SD) [4, 13]: 14.3 ± 1.0 days
- Survival ratio T/C [4, 13]: 151%
- Potentiating effect T/V [4, 14]: 156%
- Survival Days (Mean ± SD) [4, 14]: 16.2 ± 2.4 days
- Survival ratio T/C [4, 14]: 171%
- Potentiating effect T/V [4, 15]: 144%
- Survival Days (Mean ± SD) [4, 15]: 13.5 ± 0.5 days
- Survival ratio T/C [4, 15]: 142%
- Potentiating effect T/V [4, 16]: 149%
- Survival Days (Mean ± SD) [4, 16]: 15.3 ± 1.5 days
- Survival ratio T/C [4, 16]: 161%

SMILES: COC(=O)C1=C(C)NC(C)=C(C(=O)OCCN(C)Cc2ccccc2)C1c1cccc([N+](=O)[O-])c1 (stereo not drawn) [Nicardipine, reference compound]
- Blood pressure change ([2]; 10 mg/kg): -122 mmHg
- Systolic Blood Pressure 60 minutes after administration ([2]; 10 mg/kg): 86 mmHg
- inhibition at 0.01 µM (rat rectum smooth muscle): 73.1%
- Potentiating effect T/V [3, 17]: 112%
- Survival Days (Mean ± SD) [3, 17]: 12.3 ± 0.8 days
- Survival ratio T/C [3, 17]: 128%
- Potentiating effect T/V [3, 18]: 125%
- Survival Days (Mean ± SD) [3, 18]: 13.7 ± 1.2 days
- Survival ratio T/C [3, 18]: 143%
- Survival Days (Mean ± SD) [3, 19]: 10.6 ± 1.5 days
- Survival ratio T/C [3, 19]: 110%
- Survival Days (Mean ± SD) [3, 20]: 11.2 ± 1.1 days
- Survival ratio T/C [3, 20]: 117%

SMILES: CC[C@]1(O)C[C@H]2CN(CCc3c([nH]c4ccccc34)[C@@](C(=O)OC)(c3cc4c(cc3OC)N(C=O)[C@H]3[C@@](O)(C(=O)OC)[C@H](OC(C)=O)[C@]5(CC)C=CCN6CC[C@]43[C@@H]65)C2)C1 [VCR, vincristine, reference compound]
- Survival Days (Mean ± SD) ([5]; VCR 10 μg/kg/day alone): 11.8 ± 0.8 days
- Survival ratio T/C ([5]; VCR 10 μg/kg/day alone): 144%
- Survival Days (Mean ± SD) ([5]; VCR 30 μg/kg/day alone): 13.3 ± 0.9 days
- Survival ratio T/C ([5]; VCR 30 μg/kg/day alone): 162%
- Survival Days (Mean ± SD) ([5]; VCR 100 μg/kg/day alone): 15.2 ± 0.8 days
- Survival ratio T/C ([5]; VCR 100 μg/kg/day alone): 185%
- Survival Days (Mean ± SD) ([1]; VCR 30 μg/kg i.p. alone): 12.5 ± 1.4 days and 10.5 ± 0.8 days and 11.3 ± 1.0 days and 11.8 ± 1.3 days
- Survival ratio T/C ([1]; VCR 30 μg/kg i.p. alone): 104%
- Potentiating effect T/V [1, 21]: 100%
- Survival Days (Mean ± SD) ([3]; VCR 30 μg/kg i.p. alone): 11.4 ± 1.0 days and 9.8 ± 0.8 days and 11.0 ± 1.8 days
- Survival ratio T/C ([3]; VCR 30 μg/kg i.p. alone): 100%
- Potentiating effect T/V [3, 21]: 100%
- Survival Days (Mean ± SD) ([4]; VCR 10 μg/kg/day i.p. alone): 9.4 ± 0.7 days
- Survival ratio T/C ([4]; VCR 10 μg/kg/day i.p. alone): 99%
- Potentiating effect T/V ([4]; VCR 10 μg/kg/day i.p. alone (reference = 100)): 100%
- Survival Days (Mean ± SD) ([4]; VCR 30 μg/kg/day i.p. alone): 10.3 ± 1.5 days
- Potentiating effect T/V ([4]; VCR 30 μg/kg/day i.p. alone (reference = 100)): 100%
- Survival Days (Mean ± SD) ([4]; VCR 100 μg/kg/day i.p. alone): 10.4 ± 0.9 days
- Potentiating effect T/V ([4]; VCR 100 μg/kg/day i.p. alone (reference = 100)): 100%

SMILES: COc1ccc(CCN(C)CCCC(C#N)(c2ccc(OC)c(OC)c2)C(C)C)cc1OC (stereo not drawn) [Verapamil, reference compound]
- inhibition at 0.1 µM (rat rectum smooth muscle): 50.2%
- inhibition at 0.01 µM (rat rectum smooth muscle): 13.6%
- Potentiating effect T/V [1, 22]: 121%
- Survival Days (Mean ± SD) [1, 22]: 14.3 ± 1.6 days
- Survival ratio T/C [1, 22]: 134%
- Potentiating effect T/V [1, 23]: 130%
- Survival Days (Mean ± SD) [1, 23]: 15.3 ± 0.5 days
- Survival ratio T/C [1, 23]: 143%
